In BindingDB's records for doi:10.1021/jm00053a023 (Monsanto, 1993):

Biological target: endothelin converting enzyme (Oryctolagus cuniculus)
Experiment: Inhibition of endothelin converting enzyme in an RIA assay using big ET-1 as substrate (value corresponds to <25% inhibition when assayed at a 100 uM screening concentration)

IC50 | SMILES
109 µM | CCOP(=O)(O)N[C@@H](CC(C)C)C(=O)N[C@@H](Cc1c[nH]c2ccccc12)C(=O)O [2-[2-(Ethoxy-hydroxy-phosphorylamino)-4-methyl-pentanoylamino]-3-(1H-indol-3-yl)-propionic acid]
61 µM | CC(C)C[C@H](NP(=O)(O)Cc1ccccc1)C(=O)N[C@@H](Cc1c[nH]c2ccccc12)C(=O)O [2-[2-(Hydroxy-benzyl-phosphorylamino)-4-methyl-pentanoylamino]-3-(1H-indol-3-yl)-propionic acid]
48 µM | CC(C)C[C@H](NP(=O)(O)OC1CCCCC1)C(=O)N[C@@H](Cc1c[nH]c2ccccc12)C(=O)O [2-[2-(Cyclohexyloxy-hydroxy-phosphorylamino)-4-methyl-pentanoylamino]-3-(1H-indol-3-yl)-propionic acid]
